The structures appear in SMILES notation.

We go through 20 molecules from ChEMBL document CHEMBL1143763, “Synthesis, in vitro assay, and molecular modeling of new piperidine derivatives having dual inhibitory potency against acetylcholinesterase and Abeta1-42 aggregation for Alzheimer's disease therapeutics” (Bioorg Med Chem, 2007).

Chain of Acetylcholinesterase (O42275 whole entry): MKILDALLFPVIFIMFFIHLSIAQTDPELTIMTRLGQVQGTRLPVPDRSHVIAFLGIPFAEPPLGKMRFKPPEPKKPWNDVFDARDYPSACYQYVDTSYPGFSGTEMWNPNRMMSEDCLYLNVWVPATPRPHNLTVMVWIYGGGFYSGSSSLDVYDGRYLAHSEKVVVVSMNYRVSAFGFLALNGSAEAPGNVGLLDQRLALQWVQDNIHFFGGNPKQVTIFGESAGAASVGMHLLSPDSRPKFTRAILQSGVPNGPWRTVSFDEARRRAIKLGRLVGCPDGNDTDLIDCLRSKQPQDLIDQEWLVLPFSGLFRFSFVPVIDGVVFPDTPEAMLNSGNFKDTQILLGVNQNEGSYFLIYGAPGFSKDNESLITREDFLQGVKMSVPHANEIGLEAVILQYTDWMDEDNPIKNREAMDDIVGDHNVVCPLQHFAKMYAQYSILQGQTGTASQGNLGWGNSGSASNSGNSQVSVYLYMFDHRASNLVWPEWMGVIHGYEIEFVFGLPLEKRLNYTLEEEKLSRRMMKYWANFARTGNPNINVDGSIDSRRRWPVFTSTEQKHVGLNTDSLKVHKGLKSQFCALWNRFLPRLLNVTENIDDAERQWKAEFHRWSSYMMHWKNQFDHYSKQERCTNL

The first assay addresses Acetylcholinesterase (Electrophorus electricus, UniProt O42275).
Description: Inhibition of Electrophorus electricus AChE by Ellman's method
`O=C(OCCCCN1CCC(OC(c2ccccc2)c2ccccc2)CC1)c1cccc(F)c1`: the IC50 is 7.72 µM.

The molecule `O=C(OCCCCN1CCC(OC(c2ccccc2)c2ccccc2)CC1)c1ccc(Cl)cc1` gave an IC50 of 0.31 µM.

In another assay the target is Cholinesterase (Homo sapiens, UniProt P06276).
Chain of Cholinesterase (P06276 whole entry): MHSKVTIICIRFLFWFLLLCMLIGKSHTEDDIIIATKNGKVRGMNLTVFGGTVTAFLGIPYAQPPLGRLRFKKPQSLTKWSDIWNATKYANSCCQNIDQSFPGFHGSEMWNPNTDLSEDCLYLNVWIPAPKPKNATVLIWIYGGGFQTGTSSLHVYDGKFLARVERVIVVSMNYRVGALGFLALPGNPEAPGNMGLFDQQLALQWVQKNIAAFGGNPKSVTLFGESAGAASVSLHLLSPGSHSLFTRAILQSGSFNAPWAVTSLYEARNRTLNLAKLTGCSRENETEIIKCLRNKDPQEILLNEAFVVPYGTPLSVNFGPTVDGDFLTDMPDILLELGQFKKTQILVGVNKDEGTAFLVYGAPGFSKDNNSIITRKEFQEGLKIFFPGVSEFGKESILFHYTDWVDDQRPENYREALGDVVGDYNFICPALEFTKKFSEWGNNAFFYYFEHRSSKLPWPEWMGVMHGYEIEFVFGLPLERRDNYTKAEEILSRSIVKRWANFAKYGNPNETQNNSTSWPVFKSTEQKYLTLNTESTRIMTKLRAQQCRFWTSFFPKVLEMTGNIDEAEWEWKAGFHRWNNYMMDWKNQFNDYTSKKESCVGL
Description: Inhibition of human BChE by Ellman's method
As for `O=C(OCCCCN1CCC(OC(c2ccccc2)c2ccccc2)CC1)c1cccc(F)c1`, the midpoint of inhibition, the IC50, lay at 31.5 µM.

Take `O=C(Nc1ccc(F)cc1)OCCCCN1CCC(OC(c2ccccc2)c2ccccc2)CC1`: the IC50 was 15.7 µM.

For the molecule `CC(C)(C)c1ccc(C(=O)OCCCCN2CCC(OC(c3ccccc3)c3ccccc3)CC2)cc1`, the IC50 is 78.9 µM.

In the case of `O=C(Nc1ccc(Cl)cc1)OCCCCN1CCC(OCc2ccccc2)CC1`, the IC50 was 0.25 µM.

On to `CC(C)c1ccc(C(=O)OCCCCN2CCC(OCc3ccccc3)CC2)cc1`, for which half-maximal inhibition (IC50) required 10.8 µM.

`O=C(OCCCCN1CCC(OC(c2ccccc2)c2ccccc2)CC1)c1cccc(Cl)c1` returned an IC50 of 57.9 µM.

Consider `O=C(OCCCCN1CCC(OC(c2ccccc2)c2ccccc2)CC1)c1ccccc1`, for which inhibition was half-maximal at 31.5 µM (IC50).

With `O=C(OCCCCN1CCC(OC(c2ccccc2)c2ccccc2)CC1)c1ccc(F)cc1`, the IC50 worked out at 22.2 µM.

Molecule `O=C(OCCCCN1CCC(OCc2ccccc2)CC1)c1ccc(Cl)cc1` came in with an IC50 of 3.52 µM.

`O=C(OCCCCN1CCC(OCc2ccccc2)CC1)c1cccc(Cl)c1` registered an IC50 of 1.35 µM.

`O=C(OCCCCN1CCC(OC(c2ccccc2)c2ccccc2)CC1)c1ccc(Cl)cc1` displayed an IC50 of 38.4 µM.

Consider `O=C(Nc1ccc(F)cc1)OCCCCN1CCC(OCc2ccccc2)CC1`, for which half-maximal inhibition (IC50) was put at 0.78 µM.

Turning to `CC(C)(C)c1ccc(C(=O)OCCCCN2CCC(OCc3ccccc3)CC2)cc1`, the IC50 was 15.2 µM.

For `O=C(OCCCCN1CCC(OCc2ccccc2)CC1)c1ccc([N+](=O)[O-])cc1`, the IC50 worked out at 5.23 µM.

`O=C(OCCCCN1CCC(OCc2ccccc2)CC1)c1ccccc1` yielded an IC50 of 1.89 µM.

With `O=C(Nc1ccc(Cl)cc1)OCCCCN1CCC(OC(c2ccccc2)c2ccccc2)CC1`, the IC50 worked out at 13.7 µM.

For `O=C(OCCCCN1CCC(OCc2ccccc2)CC1)c1cccc(F)c1`, it took 1.58 µM to reach half-maximal inhibition (IC50).

The molecule `O=C(OCCCCN1CCC(OC(c2ccccc2)c2ccccc2)CC1)c1ccc([N+](=O)[O-])cc1` yielded an IC50 of 26.8 µM.

As to `O=C(OCCCCN1CCC(OCc2ccccc2)CC1)c1ccc(F)cc1`, the IC50 came to 0.56 µM.

`CC(C)c1ccc(C(=O)OCCCCN2CCC(OC(c3ccccc3)c3ccccc3)CC2)cc1` showed an IC50 of 23.2 µM.
